Assay results published in US20060089335A1, “Compositions and methods for enhancing cognitive function and synaptic plasticity” (priority 2003, published 2006).
“Also recorded” adds a separate entry of the source.

Tests used:
[1] = tested on: presynaptic terminals of cultured hippocampal neurons; assay: TBS-induced presynaptic plasticity measured by FM 1-43 dye uptake in hippocampal cultures; format: cell-based, rat
[2] = target: NMDA receptors (NR2B-containing) (Rattus norvegicus, UniProt P35439+Q00960); assay: evoked NMDA currents ([…]), double-perforated patch; format: cell-based
Sequence of NMDA receptors (NR2B-containing) (Q00960 27-1482, other chains not shown): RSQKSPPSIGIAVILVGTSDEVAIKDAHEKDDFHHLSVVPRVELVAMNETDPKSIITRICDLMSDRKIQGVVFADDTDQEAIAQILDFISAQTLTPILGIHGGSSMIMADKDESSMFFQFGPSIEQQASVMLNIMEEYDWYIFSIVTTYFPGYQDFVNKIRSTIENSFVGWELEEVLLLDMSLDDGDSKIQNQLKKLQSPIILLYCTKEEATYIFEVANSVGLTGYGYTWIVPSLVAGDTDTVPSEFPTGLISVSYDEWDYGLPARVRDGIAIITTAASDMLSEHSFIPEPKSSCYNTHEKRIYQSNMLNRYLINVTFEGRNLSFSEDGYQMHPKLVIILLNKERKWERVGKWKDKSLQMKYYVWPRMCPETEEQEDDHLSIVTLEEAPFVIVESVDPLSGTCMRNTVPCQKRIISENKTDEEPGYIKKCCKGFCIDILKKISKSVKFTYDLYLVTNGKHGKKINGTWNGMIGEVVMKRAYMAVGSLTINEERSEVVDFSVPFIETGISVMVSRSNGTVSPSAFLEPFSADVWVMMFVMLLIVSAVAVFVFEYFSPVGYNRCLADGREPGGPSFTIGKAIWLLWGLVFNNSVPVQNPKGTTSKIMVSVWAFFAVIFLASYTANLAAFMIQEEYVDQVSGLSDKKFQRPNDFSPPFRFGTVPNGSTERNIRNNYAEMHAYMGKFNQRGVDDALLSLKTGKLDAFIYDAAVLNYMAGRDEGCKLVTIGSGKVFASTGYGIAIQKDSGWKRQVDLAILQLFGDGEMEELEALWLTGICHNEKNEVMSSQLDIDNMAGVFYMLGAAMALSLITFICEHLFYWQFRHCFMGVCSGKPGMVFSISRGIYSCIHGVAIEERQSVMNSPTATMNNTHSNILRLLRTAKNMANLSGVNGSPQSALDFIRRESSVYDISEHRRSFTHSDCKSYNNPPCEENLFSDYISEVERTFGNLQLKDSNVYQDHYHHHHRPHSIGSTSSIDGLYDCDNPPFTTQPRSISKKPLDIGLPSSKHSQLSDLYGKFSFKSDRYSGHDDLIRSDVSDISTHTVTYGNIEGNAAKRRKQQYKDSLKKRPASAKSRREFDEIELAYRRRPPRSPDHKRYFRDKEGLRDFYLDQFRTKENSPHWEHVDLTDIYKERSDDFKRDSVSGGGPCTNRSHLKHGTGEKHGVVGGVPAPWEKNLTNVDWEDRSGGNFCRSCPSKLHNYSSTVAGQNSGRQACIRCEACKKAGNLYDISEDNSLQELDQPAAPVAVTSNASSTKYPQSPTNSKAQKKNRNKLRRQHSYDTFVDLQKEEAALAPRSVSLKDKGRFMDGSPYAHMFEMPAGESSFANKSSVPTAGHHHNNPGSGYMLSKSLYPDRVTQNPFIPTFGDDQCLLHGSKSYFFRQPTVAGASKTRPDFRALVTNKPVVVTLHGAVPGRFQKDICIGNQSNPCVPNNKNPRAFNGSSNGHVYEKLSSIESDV
Method: Electrophysiology. Dual whole cell perforated patch clamp recordings were made on two interconnected cultured hippocampal pyramidal neurons. Perforated patch pipettes were front-filled with a solution containing (in mM): CsOH, 127; D-gluconic acid, 127; CsCl, 4; HEPES, 10; NaCl, 8; EGTA, 0.4; pH was adjusted to 7.25 with CsOH, and then back-filled with the same solution containing […] amphotericin B (Sigma, St. Louis, Mo.). Extracellular solution contained (in mM): NaCl, 145; KCl, 3; glucose, 15; HEPES, 10; MgCl2, 0.8-1.2; CaCl2, 1.2; 0.005 glycine (Sigma), 0.05 picrotoxin (Sigma); pH adjusted to 7.4 with NaOH. MgCl2 concentration was matched to its concentration in culture medium. In experiments where effects of drugs on neuronal activity were quantified (FIG. 4D), recordings were done in culture medium (with HEPES replacing bicarbonate/CO2 to maintain pH). All experiments were performed at room temperature. For assaying synaptic connectivity, each neuron was stimulated by 1 ms step depolarization from −70 to +30 mV in voltage-clamp mode. Only neurons with monosynaptic connections were used. […] Recordings with access resistance>20 MΩ or that varied substantially were rejected from analysis.
We hypothesized that one target may be the number and properties of NMDA receptors at individual synapses.

GluR1 = assay: quantitative Western blotting of hippocampal homogenate; format: in vivo, rat; conditions: baclofen 0.07 mg/kg/day in drinking water, 4 months; rats' hippocampus
Method: (§1) Quantitative Western blotting. Samples of hippocampal homogenate (10 ug/sample) were resolved on polyacrylamide gels, transferred to PVDF, and probed with anti-NR1 (Chemicon), NR2A (Upstate) or NR2B (Santa Cruz Biotech), GluR1 (Chemicon), Synapsin1 (American Qualex), or PSD-95 (Upstate) antibody followed by the appropriate secondary antibody coupled to horseradish peroxidase (1:10,000, Santa Cruz Biotech) in Tris-buffered saline (pH 7.3) containing 5% dry milk and 0.1% Tween (BioRad). Visualization of immunoreactive bands was achieved by enhanced chemiluminescence (Perkin Elmer Biosciences) and captured on autoradiography film (Kodak Scientific). Standard curves, in which the amount of protein was varied systematically, were constructed to establish that we operated within the linear range of the chemiluminescence detection method. In addition, each immunoblot was exposed to autoradiography film multiple times (average 7; minimum 5) for varying duration to make sure we operated in the linear range of the film for each experiment. Digital images, produced by scanning films on a Epson 3200 Scanner (Epson) with Epson Scan Software (Epson), were quantified using GelPro Analyzer 3.1 software. The integrated optical density (IOD) of each immunoreactive band from hippocampal samples relative to baseline measured immediately above and below the band in the same lane, and normalized by the actin or neurofilament band also in the same lane. Group data (eight animals per group) are represented as the mean+/−SEM of the IOD of samples.

NR2B = assay: as above; format: in vivo, rat
Method: as §1

[3] = tested on: excitatory and inhibitory terminals; conditions: short treatment (2-24 hr)
[4] = general status of treated rats; conditions: chronic treatment in drinking water, 4 months

## NCC(CC(=O)O)c1ccc(Cl)cc1 (stereo not shown) [baclofen, 4-amino-3-(4-chlorophenyl) butanoic acid]
[1]; 4-6 hours treatment, baclofen 20 μm, NBQX 1 μm, flunitrazepam 5 μm
  effect of theta-burst induction in treated cultures: Both the number of functional synapses and the probability of release increased
[1]; baclofen 10 μM, short term (4-6 hours) and long term (48 hours)
  plasticity of presynaptic terminals (S2/S1): induced enhancement of plasticity for both short term (4-6 hours) and long term (48 hours) periods of time; also recorded: enhances plasticity of presynaptic terminals
[2]; baclofen-treated neurons, FIG. 7A
  τdecay of EPSCNMDA, representative trace: 200 ms
[2]; baclofen-treated neurons, N=6
  τdecay of EPSCNMDA, average: 176 ± 30 ms
[2]; ifenprodil 3 μM, baclofen 10 μM 6 hours or 1.2 mM Mg
  ifenprodil-sensitivity of EPSCNMDA in treated versus control cultures: triggered increased sensitivity of the EPSCNMDA to ifenprodil; also recorded: more sensitive to ifenprodil; also recorded: increases the sensitivity of EPSCNMDA to ifenprodil
GluR1
  GLUR1 expression level: significant enhancement; also recorded: increases expression level
NR2B; baclofen 0.07 mg/kg/day in drinking water, 4 months, rats' hippocampus
  NR2B expression level: significant enhancement; also recorded: increases expression level
NR2B; baclofen treatment (FIG. 10)
  increase in levels of NR2B protein: approximately 60%
[3]
  change of synaptic density: No short treatment (2-24 hr, baclofen, nimodepine, NBQX, and TTX) produced a significant change of synaptic density
[4]
  general status of the rats (body weight, mobility): did not observe any significant change in the general status
